# According to patent US20190314407A1, “COMPOSITIONS AND METHODS FOR THE EXPANSION OF HEMATOPOIETIC STEM AND PROGENITOR CELLS” (Magenta Therapeutics Inc., priority 2017, published 2019):
# Tests used:
# [1] = test system: primary human CD34+ cells; assay: Ex vivo expansion of primary human CD34+ cells in the presence of cytokines (Example 1); type: cell-based; conditions: relative to vehicle-cultured CB derived CD34+ cells
# Description: (§1) Methods. […] Cell number and immunophenotype were assessed by flow cytometry, and HSC function was evaluated by cell and molecular assays in vitro. The expanded cells were transplanted into sub-lethally irradiated NSG mice to evaluate engraftment potential in vivo. For editing studies, mPB and BM CD34+ cells were electroporated with CRISPR/Cas9 RNPs targeting the beta-2 microglobulin (B2M) cell surface protein. Editing rates were evaluated by flow cytometry based on loss of protein expression and TIDE analysis. Edited cells were expanded in the presence of AHR antagonist or vehicle and transplanted into NSG mice. The AHR antagonist used in the experiments described in this Example is Compound 26 herein. Engraftment and editing rates were evaluated by flow cytometry of the peripheral blood and bone marrow.
# [2] = test system: NSG mice; assay: Transplant of expanded cells into sub-lethally irradiated NSG mice, engraftment and editing rates by flow cytometry (Example 1); type: in vivo, mouse; conditions: for engraftment in NSG mice: relative to vehicle-cultured CB derived CD34+ cells
# Description: as §1
# [3] = target: T1, AHR (Homo sapiens, UniProt P35869); assay: Dioxin response element luciferase reporter assay; type: cell-based
# T1 sequence (P35869 11-848): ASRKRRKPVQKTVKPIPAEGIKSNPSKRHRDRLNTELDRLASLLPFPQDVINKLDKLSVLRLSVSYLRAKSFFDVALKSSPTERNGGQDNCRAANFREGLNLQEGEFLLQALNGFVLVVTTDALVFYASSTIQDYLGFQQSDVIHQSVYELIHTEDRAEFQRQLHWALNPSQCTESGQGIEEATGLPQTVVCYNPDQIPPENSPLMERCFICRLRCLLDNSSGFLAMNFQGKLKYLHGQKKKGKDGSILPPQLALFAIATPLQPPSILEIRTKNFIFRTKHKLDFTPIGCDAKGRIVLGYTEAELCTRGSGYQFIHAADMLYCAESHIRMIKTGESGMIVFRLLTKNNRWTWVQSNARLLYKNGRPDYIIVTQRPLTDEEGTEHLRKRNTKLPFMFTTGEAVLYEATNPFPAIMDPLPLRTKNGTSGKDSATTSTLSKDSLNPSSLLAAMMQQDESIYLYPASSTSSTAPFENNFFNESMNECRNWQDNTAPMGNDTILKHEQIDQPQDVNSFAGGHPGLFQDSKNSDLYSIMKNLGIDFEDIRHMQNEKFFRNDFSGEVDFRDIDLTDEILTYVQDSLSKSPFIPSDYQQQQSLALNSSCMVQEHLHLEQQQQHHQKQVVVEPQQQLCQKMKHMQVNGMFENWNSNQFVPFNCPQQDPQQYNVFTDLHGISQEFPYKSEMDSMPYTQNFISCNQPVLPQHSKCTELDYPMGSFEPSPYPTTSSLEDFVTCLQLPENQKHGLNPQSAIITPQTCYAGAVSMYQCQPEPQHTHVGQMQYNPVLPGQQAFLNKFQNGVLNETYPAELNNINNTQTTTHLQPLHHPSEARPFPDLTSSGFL
# [4] = test system: mPB and BM derived CD34+ cells; assay: Expansion of CRISPR/Cas9 B2M-edited mPB and BM CD34+ cells (Example 1); type: cell-based, human; conditions: 7 days of expansion, AHR antagonist = Compound 26
# Description: as §1
# [5] = test system: CD34+ cells from mPB and bone marrow (BM); assay: Ex vivo expansion of lentivirally transduced or CRISPR/Cas9 B2M-edited CD34+ cells (Example 2); type: cell-based, human; conditions: AHR antagonist = Compound 26
# Description: Lentiviral Transduction: Cryopreserved CD34+ cells from mobilized peripheral blood (mPB) were thawed and cultured overnight in media with cytokines and either vehicle (DMSO) or the AHR antagonist (expanded). The following day, cells were plated on retronectin-coated plates and transduced with a lentiviral vector, containing a green fluorescent protein (GFP) transgene under the control of the MND promoter, at an MOI of 50 in the presence of vehicle or the AHR antagonist. 24 hours later, cells were harvested, washed, and resuspended in media with cytokines and the appropriate compound.
# CRISPR/Cas9 Editing and Expansion: Cryopreserved CD34+ cells from mPB and bone marrow (BM) were thawed and cultured overnight in media with cytokines and either vehicle or the AHR antagonist. Cells were electroporated with Cas9 protein (Aldevron) and synthetic, chemically-modified gRNA (Synthego) targeting beta-2-microglobulin (B2M) as a ribonucleotide protein (RNP).
# [6] = test system: NSG mice; assay: Transplant of gene-modified, expanded CD34+ cells into NSG mice (Example 2); type: in vivo, mouse; conditions: AHR antagonist = Compound 26
# Source text: Transplant into NSG mice: All of the progeny from cultured cells were transplanted into sub-lethally irradiated, female, 6-8 week old NSG mice. Engraftment and transduction/editing rates were monitored monthly by flow cytometry. “Minimally manipulated” controls were transplanted one day after editing for a total culture time of 2 days.
# [7] = test system: CD34+CD90+ mobilized peripheral blood cells; assay: Cell cycle phase of CD34+CD90+ cells in culture, mobilized peripheral blood (Example 5); type: cell-based; conditions: cytokines, same in presence or absence of Compound 26 (500 nM)
# [8] = test system: CD34+CD90+ cord blood cells; assay: Cell cycle phase of CD34+CD90+ cells in culture, cord blood (Example 5); type: cell-based; conditions: cytokines, same in presence or absence of Compound 26 (500 nM)
# [9] = test system: mobilized peripheral blood (mPB) CD34+ cells; assay: Gene correction rate after prestimulation and electroporation with gRNA/Cas9 and oligonucleotide donor (Example 5); type: cell-based; conditions: mPB cells prestimulated 4 days in the presence of Compound 26 versus 1 day prior to electroporation; FIG. 13A
# Description: Mobilized peripheral blood (mPB) CD34+ or cord blood (CB) CD34+ cells were thawed and pre-stimulated, i.e., cultured, in serum-free media (SFEM media supplemented with cytokines SCF, IL6, TPO, and FLT3L) in the presence or absence of Compound 26 (500 nM). Cells were pre-stimulated 1, 2, 3, or 4 days prior to electroporation with gRNA/Cas9 and oligonucleotide donor. Cells were cultured for an additional 8 days after electroporation and profiled at 2, 4, 6, or 8 days post-electroporation using a Trucount-based method of HSC quantification of CD34, CD90, and CD45RA. Cells were subcultured to maintain cell density at less than 1×10^6 cells/mL. On day 8, genomic DNA was extracted from bulk cell cultures, and correction rate was assessed by qPCR. Number of corrected cells was determined by number of total cells at the indicated timepoint multiplied by the correction rate for that pre-stimulation condition.
# [10] = B2M-edited expanded cells, AHR antagonist = Compound 26
# [11] = mPB CD34+ cells, 7 days culture, FIGS. 2A-2D
smiles,measurement,setting,value
COCCC(C)c1cnc2c(NCCc3c[nH]c4ccccc34)nc(-c3cncc(F)c3)cn12 (stereo not shown) [Compound 26],increase in CD34+ number,[1],6 fold
same,human cells in the periphery of the mice showing loss of target protein (average),[2]; [10],> 75%
same,increase in engraftment compared to mice receiving vehicle-treated cells,[2]; [10],greater than 2 fold
same,engraftment in NSG mice,[2],significant increase
same,AHR antagonism in the dioxin response element luciferase reporter assay,[3],complete AHR antagonism
same,increase in potency compared to SR1,[3]; dioxin response element luciferase reporter assay,12 fold
same,CD34+CD90+ cells in expanded culture versus vehicle-treated cells,[4]; B2M-edited cells,3.4 fold
same,loss of the target protein (B2M),[4]; mPB and BM CD34+ cells edited with CRISPR/Cas9 RNPs,84%
same,quantity of GFP+CD34+CD90+ cells,"[5]; GFP lentivirus-transduced mPB CD34+ cells, 7 days, versus vehicle or no treatment",increased the quantity of GFP+CD34+CD90+ cells to a greater extent than vehicle treatment
same,editing rates,"[5]; both mPB and BM CD34+ cells, CRISPR/Cas9 B2M",80%
same,"quantities of total cells, CD34+ cells, and CD34+CD90+ cells relative to vehicle-treated and untreated cells","[5]; cells subject to CRISPR/Cas9-mediated B2M editing, FIGS. 5A-5E",substantially higher quantities
same,"quantities of total cells, CD34+ cells, and CD34+CD90+ cells relative to vehicle-treated and untreated cells","[5]; cells subject to lentiviral transduction, FIGS. 3A-3E",substantially higher quantities
same,quantity of CD34+CD90+ cells relative to vehicle-treated and untreated cells,[5]; [11],substantial increase
same,total quantity of cells relative to vehicle-treated cells,[5]; [11],increase in the total quantity of cells
same,retention of B2M− phenotype relative to vehicle-treated cells following transplantation,[6]; NSG mice,greater retention
same,improvement in engraftment compared to vehicle-cultured cells,"[6]; edited, expanded cells, both the PB and BM of mice after 16 weeks",greater than 2 fold
same,engraftment rates relative to minimally-manipulated cells,"[6]; expanded, edited mPB and BM cells, FIGS. 7A-7N",higher engraftment rates
same,editing rates following transplantation into NSG mice,[6]; mPB and BM CD34+ cells,maintained
same,engraftment compared to minimally manipulated and vehicle controls,[6]; mPB and BM hematopoietic stem cells transplanted into NSG mice,increased engraftment
same,engraftment rates relative to vehicle-cultured cells,"[6]; transduced/edited, expanded mPB cells in NSG mice",higher engraftment rates
same,days in culture after which substantially all CD34+CD90+ cells exit the G0 phase and enter the replicative cell cycle,[7],about 3 days
same,days in culture after which substantially all CD34+CD90+ cells exit the G0 phase and enter the replicative cell cycle,[8],about 3 days
same,rates of gene correction,[9],higher rates of gene correction
"CC(C)n1cnc2c(NCCc3ccc(O)cc3)nc(-c3csc4ccccc34)nc21 [SR1, reference compound]",increase in CD34+ number,[1],6 fold
same,engraftment in NSG mice,[2],significant increase
